Usually EC50 stands for the concentration at which the effect is half-maximal. The low end stands for greater potency, the high end for weaker potency.

This assay has as its target T1, human FXR (Homo sapiens, UniProt Q96RI1).
T1 construct: expressed in transfected cells
T1 sequence (Q96RI1 262-486 limits assumed): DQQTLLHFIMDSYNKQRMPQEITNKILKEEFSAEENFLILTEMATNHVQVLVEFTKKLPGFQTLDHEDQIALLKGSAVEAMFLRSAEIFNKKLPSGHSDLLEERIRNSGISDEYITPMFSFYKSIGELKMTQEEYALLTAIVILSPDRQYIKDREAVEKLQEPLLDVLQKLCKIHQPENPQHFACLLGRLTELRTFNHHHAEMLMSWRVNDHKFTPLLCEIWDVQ
The assay is described as follows: transient human FXR/Gal4-luciferase reporter assay. The class given is cell-based. As to conditions: Gal4-hFXR (ligand binding domain) fusion transiently transfected in HEK293 Gal4-luciferase reporter cells; overnight incubation; response as percentage of 8 μM GW-4064 control. The procedure: A Gal4-hFXR fusion construct reporter system was used as the primary assay to characterize compound activity. A construct including 5 copies of the Gal4 promoter response element upstream of a firefly luciferase reporter cDNA was stably expressed in HEK293 cells. This reporter cell line was maintained in Dulbecco's Modified Eagle's medium (DMEM; Gibco) supplemented with 1% penicillin-streptomycin (P/S) solution, 500 μg/ml Zeocin and 10% charcoal/dextran-treated fetal bovine serum (cs-FBS) at 37° C. in a humidified 5% CO2 atmosphere. Another plasmid was constructed in which the human cytomegalovirus promoter in the pcDNA3.1 vector directs the expression of the cDNA encoding a fusion protein comprised of the DNA binding domain from the Gal4 transcription factor fused to the ligand binding domain from human FXR.
The day prior to transfection, the reporter cells in culture are detached from the plate with trypsin and plated into a T75 flask at a sufficient density to achieve approximately 90% confluence the next morning. The transfection reagents are prepared by separately diluting 25 μg of the pcDNA3.1-Gal4-FXR plasmid into 1.87 mL of Opti-MEM (Thermo-Fisher), and 40 μL of Lipofectamine 2000 (Thermo-Fisher) into 1.87 mL of Opti-MEM, and then adding the diluted DNA solution into the diluted Lipofectamine 2000 solution and incubating at room temperature for 15-20 minutes. The mixture is further diluted with 10 ml of a solution comprised of DMEM, 10% cs-FBS, and 1% P/S immediately prior to transferring to the cells. The maintenance culture media is aspirated from the cells and the final transfection mixture is added before the cells are incubated overnight at 37° C. in a humidified 5% CO2 atmosphere. This protocol can be scaled up, and the transiently transfected cells can be cryopreserved in an assay-ready format.
For compound testing, 100 nL of the compounds (serial dilutions in DMSO) are dispensed with an Echo acoustic dispenser (Labcyte) into the wells of a Corning/Costar clear bottom 384-well white plate. The transfected cells are harvested, counted, and diluted such that 10-25,000 cells in 25 μL are plated into each well of the 384-well compound assay plate. The compound-treated cells are incubated overnight at 37° C. in a humidified 5% CO2 atmosphere. The next morning 25 μL of Steady-Glo (Promega) are added to each well of the plate, the mixture is incubated for 15 min. with shaking, and luminescence is measured on an Envision (Perkin Elmer) plate reader.
For orientation: Reporter assays use an easily measured gene product as a stand-in for the process of interest.
Regarding `COC(=O)/C=C/c1cccc(N(C(=O)C2CCCCC2)C(C)C23CCC(c4nc(C)no4)(CC2)CC3)c1` (single isomer, unassigned) [Example 46, Methyl (E)-3-(3-(N-(1-(4-(3-methyl-1,2,4-oxadiazol-5-yl)bicyclo[2.2.2]octan-1-yl)ethyl)cyclohexanecarboxamido)phenyl)acrylate], it took 0.302 µM to reach a half-maximal effect (EC50).
The figure for `COC(=O)/C=C/c1cccc(N(C(=O)C2CCCCC2)C(C)C23CCC(c4nc(C)no4)(CC2)CC3)c1` (single isomer, unassigned) [Example 47, Methyl (E)-3-(3-(N-(1-(4-(3-methyl-1,2,4-oxadiazol-5-yl)bicyclo[2.2.2]octan-1-yl)ethyl)cyclohexanecarboxamido)phenyl)acrylate] is 0.152 µM.
`COC(=O)/C=C/c1cccc(N(CC23CCC(c4ccc(N(C)C)cc4)(CC2)CC3)C(=O)C2CCCCC2)c1` [Example 1, Methyl (E)-3-(3-(N-((4-(4-(dimethylamino)phenyl)bicyclo[2.2.2]octan-1-yl)methyl)cyclohexanecarboxamido)phenyl)acrylate] came in with an EC50 of 0.078 µM.
As for `CN(C)c1ccc(C23CCC(CN(C(=O)C4CCCCC4)c4cccc(/C=C/C(=O)O)c4)(CC2)CC3)cc1` [Example 2, (E)-3-(3-(N-((4-(4-(dimethylamino)phenyl)bicyclo[2.2.2]octan-1-yl)methyl)cyclohexanecarboxamido)phenyl)acrylic Acid], the response was half-maximal at 1.52 µM (EC50).
`COC(=O)/C=C/c1cccc(N(CC23CCC(c4ccc(N5CCOCC5)cc4)(CC2)CC3)C(=O)C2CCCCC2)c1` [Example 3, (E)-methyl 3-(3-(N-((4-(4-morpholinophenyl)bicyclo[2.2.2]octan-1-yl)methyl)cyclohexanecarboxamido)phenyl)acrylate] registered an EC50 of 0.165 µM.
`COC(=O)/C=C/c1cccc(N(CC23CCC(c4ccc(N5CCCC5)cc4)(CC2)CC3)C(=O)C2CCCCC2)c1` [Example 4, (E)-methyl 3-(3-(N-((4-(4-(pyrrolidin-1-yl)phenyl)bicyclo[2.2.2]octan-1-yl)methyl)cyclohexanecarboxamido)phenyl)acrylate] returned an EC50 of 0.52 µM.
Molecule `COC(=O)/C=C/c1cccc(N(CC23CCC(c4ccc(N(C)C)cc4)(CC2)CC3)C(=O)C2CCOCC2)c1` [Example 6, Methyl (E)-3-(3-(N-((4-(4-(dimethylamino)phenyl)bicyclo[2.2.2]octan-1-yl)methyl)tetrahydro-2H-pyran-4-carboxamido)phenyl)acrylate] came in with an EC50 of 0.212 µM.
In turn, `COC(=O)/C=C/c1cccc(N(CC23CCC(c4ccccc4)(CC2)CC3)C(=O)C2CCCCC2)c1` [Example 7, Methyl (E)-3-(3-(N-((4-phenylbicyclo[2.2.2]octan-1-yl)methyl)cyclohexanecarboxamido)phenyl)acrylate] came in with an EC50 of 0.395 µM.
`COC(=O)/C=C/c1cccc(N(CC23CCC(c4ccc5c(cnn5C)c4)(CC2)OC3)C(=O)C2CCOCC2)c1` [Example 8, (E)-Methyl 3-(3-(N-((1-(1-methyl-1H-indazol-5-yl)-2-oxabicyclo[2.2.2]octan-4-yl)methyl)tetrahydro-2H-pyran-4-carboxamido)phenyl)acrylate] showed an EC50 of 1.6 µM.
Take `COC(=O)/C=C/c1cccc(N(CC23CCC(c4ccc5c(cnn5C)c4)(CC2)OC3)C(=O)C2CCN(C)CC2)c1` [Example 9, (E)-Methyl 3-(3-(1-methyl-N-((1-(1-methyl-1H-indazol-5-yl)-2-oxabicyclo[2.2.2]octan-4-yl)methyl)piperidine-4-carboxamido)phenyl)acrylate]: it took 4.72 µM to reach a half-maximal effect (EC50).
On to `COC(=O)/C=C/c1cccc(N(CC23CCC(c4ccc(OC)cc4)(CC2)OC3)C(=O)C2CCCCC2)c1` [Example 10, Methyl (E)-3-(3-(N-((1-(4-methoxyphenyl)-2-oxabicyclo[2.2.2]octan-4-yl)methyl)cyclohexanecarboxamido)phenyl)acrylate], for which the EC50 was found to be 0.319 µM.
Molecule `COC(=O)C1=Cc2cccc(N(CC34CCC(c5ccc(N6CCOCC6)cc5)(CC3)CC4)C(=O)C3CCCCC3)c2CC1` [Example 11, Methyl 5-(N-((4-(4-morpholinophenyl)bicyclo[2.2.2]octan-1-yl)methyl)cyclohexanecarboxamido)-3,4-dihydronaphthalene-2-carboxylate] returned an EC50 of 2.74 µM.
Turning to `COC(=O)C1=Cc2cccc(N(CC34CCC(c5ccc(N(C)C)cc5)(CC3)CC4)C(=O)C3CCCCC3)c2CC1` [Example 12, methyl 5-(N-((4-(4-(dimethylamino)phenyl)bicyclo[2.2.2]octan-1-yl)methyl)cyclohexanecarboxamido)-3,4-dihydronaphthalene-2-carboxylate], the EC50 was 2.58 µM.
Molecule `CCN(CC)c1ccc(C23CCC(CN(C(=O)C4CCCCC4)c4cccc5c4CCC(C(=O)OC)=C5)(CC2)CC3)cc1` [Example 13, methyl 5-(N-((4-(4-(diethylamino)phenyl)bicyclo[2.2.2]octan-1-yl)methyl)cyclohexanecarboxamido)-3,4-dihydronaphthalene-2-carboxylate] displayed an EC50 of 0.912 µM.
`COC(=O)/C=C(\C)c1cccc(N(CC23CCC(c4ccc(N5CCOCC5)cc4)(CC2)CC3)C(=O)C2CCCCC2)c1` [Example 14, Methyl (E)-3-(3-(N-((4-(4-morpholinophenyl)bicyclo[2.2.2]octan-1-yl)methyl)cyclohexanecarboxamido)phenyl)but-2-enoate] came in with an EC50 of 1.15 µM.
`COC(=O)/C=C/c1cccc(N(CC23CCC(c4ccc(OC)cc4)(CC2)CC3)C(=O)C2CCCCC2)c1` [Example 15, Methyl (E)-3-(3-(N-((4-(4-methoxyphenyl)bicyclo[2.2.2]octan-1-yl)methyl)cyclohexanecarboxamido)phenyl)acrylate]: a half-maximal response (EC50) required 0.243 µM.
Molecule `COC(=O)/C=C(\C)c1cccc(N(CC23CCC(c4ccc(OC)cc4)(CC2)CC3)C(=O)C2CCCCC2)c1` [Example 16, Methyl (E)-3-(3-(N-((4-(4-methoxyphenyl)bicyclo[2.2.2]octan-1-yl)methyl)cyclohexanecarboxamido)phenyl)but-2-enoate] registered an EC50 of 0.576 µM.
For the molecule `COc1ccc(C23CCC(CN(C(=O)C4CCCCC4)c4cccc5c4CCC(C(=O)O)=C5)(CC2)CC3)cc1` [Example 17, 5-(N-((4-(4-methoxyphenyl)bicyclo[2.2.2]octan-1-yl)methyl)cyclohexanecarboxamido)-3,4-dihydronaphthalene-2-carboxylic Acid], the concentration for a half-maximal effect (EC50) was found to be 2.24 µM.
`COC(=O)C1=Cc2cccc(N(CC34CCC(c5ccc(OC)cc5)(CC3)CC4)C(=O)C3CCCCC3)c2CC1` [Example 18, Methyl 5-(N-((4-(4-methoxyphenyl)bicyclo[2.2.2]octan-1-yl)methyl)cyclohexanecarboxamido)-3,4-dihydronaphthalene-2-carboxylate] yielded an EC50 of 1.81 µM.
As for `COC(=O)/C=C(\C)c1cccc(N(CC23CCC(c4nc(C)no4)(CC2)CC3)C(=O)C2CCCCC2)c1` [Example 19, Methyl (E)-3-(3-(N-((4-(3-methyl-1,2,4-oxadiazol-5-yl)bicyclo[2.2.2]octan-1-yl)methyl)cyclohexanecarboxamido)phenyl)but-2-enoate], a half-maximal response (EC50) required 0.551 µM.
The figure for `COC(=O)/C=C/c1cccc(N(CC23CCC(c4nc(C)no4)(CC2)CC3)C(=O)C2CCCCC2)c1` [Example 20, Methyl (E)-3-(3-(N-((4-(3-methyl-1,2,4-oxadiazol-5-yl)bicyclo[2.2.2]octan-1-yl)methyl)cyclohexanecarboxamido)phenyl)acrylate] is 0.056 µM; for `COC(=O)/C=C/c1cccc(N(CC23CCC(c4nc(C)no4)(CC2)CC3)C(=O)C2CC2)c1` [Example 21, methyl (E)-3-(3-(N-((4-(3-methyl-1,2,4-oxadiazol-5-yl)bicyclo[2.2.2]octan-1-yl)methyl)cyclopropanecarboxamido)phenyl) acrylate] it is 2.44 µM; for `COC(=O)/C=C/c1cccc(N(CC23CCC(c4nc(C)no4)(CC2)CC3)C(=O)C(C)C)c1` [Example 22, methyl (E)-3-(3-(N-((4-(3-methyl-1,2,4-oxadiazol-5-yl)bicyclo[2.2.2]octan-1-yl)methyl)isobutyramido)phenyl)acrylate] it is 0.849 µM.

The record behind these values is patent publication US12030835B2, “Substituted amide compounds useful as farnesoid X receptor modulators” (BRISTOL-MYERS SQUIBB COMPANY, priority 2019, dated 2024).
